Results from US20230013669A1, “Antibacterial Treatment Using a Cannabinoid and an Active Agent” (priority 2019, published 2023).
Where “and” joins values, the source holds several entries; their conditions need not be identical. Identical values can stand only once. Like-named read-outs stand apart in the source and are kept apart here.

Key:
[1] = system: Klebsiella pneumoniae BAA-2146 (GN_045), NDM-1; experiment: Synergy of cannabidiol with cell-wall disrupting agent (CBD MIC in combination, FICI); type: cell-based; details: for MIC: Klebsiella pneumoniae
Experimental: (§1) The compounds were stored short term at 4° C.
(§2) Analysis was performed using Microsoft Excel.

[2] = system: Klebsiella pneumoniae ATCC 13883 (GN_003 / GN_004); experiment: as above; type: cell-based; details: Klebsiella pneumoniae ATCC 700603
Experimental: as §1, §2

[3] = CBD with MCC_6442, listed as CBD

Which results are given for `C=C(C)C1CCC(C)=CC1c1c(O)cc(CCCCC)cc1O` (centres unmarked) [Cannabidiol, 2-[3-methyl-6-(1-methylethenyl)-2-cyclohexen-1-yl]-5-pentyl-1,3-benzenediol]?
cannabidiol in combination with MCC_09222: synergy ([1]; Example 9): synergistic effect; CBD MIC with MCC_09222 at concentration 16 μg/mL ([1]; Example 9, GN_045, listed as CBD): 2 µg/mL; MIC ([1]; BAA2146, read-out: CBD MIC with MCC_09222 at concentration 8 μg/mL, Example 9, GN_045): 16 µg/mL; MIC ([1]; BAA2146, read-out: CBD MIC with MCC_09222 at concentration 16 μg/mL, Example 9, GN_045): 4 µg/mL; MIC ([1]; BAA2146, read-out: CBD MIC with MCC_09222 at concentration 32 μg/mL, Example 9, GN_045): 2 µg/mL; MIC ([1]; BAA2146, read-out: CBD MIC with MCC_09222 at concentration 64 μg/mL, Example 9, GN_045): 2 µg/mL; MIC ([1]; BAA2146, read-out: CBD MIC with MCC_09222 at concentration 128 μg/mL, Example 9, GN_045): 0.000977 µg/mL; FICI range (MIC table) ([2]; CBD with Cefotetan, listed as CBD): 1-1.5 and 0.5-1.25; FICI ([2]; CBD with Ceftazidime at 4 μg/mL, listed as CBD): 1; FICI ([2]; CBD with Ceftazidime at 8 μg/mL, listed as CBD): 1; FICI ([2]; CBD with Ceftazidime at 16 μg/mL, listed as CBD): 1.001 and 1; FICI ([2]; CBD with Ceftazidime at 32 μg/mL, listed as CBD): 1.002 and 1.001; FICI ([2]; CBD with Ceftazidime at 64 μg/mL, listed as CBD): 0.00391 and 0.001957; FICI ([2]; CBD with Ceftazidime at 128 μg/mL, listed as CBD): 0.007816 and 0.00391; FICI range (MIC table) ([2]; CBD with Ceftazidime): 0-1; FICI ([2]; CBD with Cefuroxime at 1 μg/mL): 1.016; FICI ([2]; CBD with Cefuroxime at 2 μg/mL): 1.031; FICI ([2]; CBD with Cefuroxime at 4 μg/mL): 1.0625; FICI ([2]; CBD with Cefuroxime at 8 μg/mL): 1.125; FICI ([2]; CBD with Cefuroxime at 16 μg/mL): 1.25; FICI ([2]; CBD with Cefuroxime at 32 μg/mL): 0.5; FICI ([2]; CBD with Colistin at 0.031 μg/mL): 1.03; FICI ([2]; CBD with Colistin at 0.062 μg/mL): 1.06; FICI ([2]; CBD with Colistin at 0.25 μg/mL): 1.25; FICI ([2]; CBD with Colistin at 0.5 μg/mL): 0.5; FICI ([2]; CBD with Colistin at 1 μg/mL): 1; FICI range (MIC table) ([2]; CBD with Colistin): 0.5-1.25; FICI range (Synergy table) ([2]; CBD with Colistin): 0.5-1.25; FICI range (MIC table) [2, 3]: 0.25-1.13 and 0.13-1.06; FICI range (Synergy table) [2, 3]: 0.25-0.5 and 0.13-0.25; FICI ([2]; CBD with MCC_6442 at 0.25 μg/mL): 1.031; FICI ([2]; CBD with MCC_6442 at 0.25 μg/mL, listed as CBD): 1.016; FICI ([2]; CBD with MCC_6442 at 0.5 μg/mL, listed as CBD): 1.0625 and 1.031; FICI ([2]; CBD with MCC_6442 at 1 μg/mL, listed as CBD): 1.125 and 1.0625; FICI ([2]; CBD with MCC_6442 at 2 μg/mL, listed as CBD): 0.2539 and 0.1289; FICI ([2]; CBD with MCC_6442 at 4 μg/mL, listed as CBD): 0.501 and 0.251; FICI ([2]; CBD with Ticarcillin at 2 μg/mL): 1.002; FICI ([2]; CBD with Ticarcillin at 4 μg/mL): 1.004; FICI ([2]; CBD with Ticarcillin at 16 μg/mL): 1.016; FICI ([2]; CBD with Ticarcillin at 32 μg/mL): 1.031; FICI ([2]; CBD with Ticarcillin at 64 μg/mL): 1.0625; FICI range (MIC table) ([2]; CBD with Ticarcillin): 1-1.06; CBD MIC with Cefotetan ([2]; Cefotetan at 0.015 μg/mL): >256 µg/mL; CBD MIC with Cefotetan ([2]; Cefotetan at 0.031 μg/mL): >256 µg/mL; CBD MIC with Cefotetan ([2]; Cefotetan at 0.062 μg/mL): >256 µg/mL; CBD MIC with Cefotetan ([2]; Cefotetan at 0.25 μg/mL): >256 µg/mL; CBD MIC with Cefotetan ([2]; Cefotetan at 0.5 μg/mL): 0.001 µg/mL; CBD MIC with Ceftazidime ([2]; Ceftazidime at 0.015 μg/mL as headed in Table 64): >256 µg/mL; CBD MIC with Ceftazidime ([2]; Ceftazidime at 0.031 μg/mL as headed in Table 64): >256 µg/mL; CBD MIC with Ceftazidime ([2]; Ceftazidime at 0.062 μg/mL as headed in Table 64): >256 µg/mL; CBD MIC with Ceftazidime ([2]; Ceftazidime at 0.25 μg/mL as headed in Table 64): 0.001 µg/mL; CBD MIC with Ceftazidime ([2]; Ceftazidime at 0.5 μg/mL as headed in Table 64): 0.001 µg/mL; CBD MIC with Ceftazidime ([2]; Ceftazidime at 4 μg/mL (Table 66)): >32 µg/mL; CBD MIC with Ceftazidime ([2]; Ceftazidime at 8 μg/mL (Table 66)): >32 µg/mL; CBD MIC with Ceftazidime ([2]; Ceftazidime at 16 μg/mL (Table 66)): >32 µg/mL; CBD MIC with Ceftazidime ([2]; Ceftazidime at 32 μg/mL (Table 66)): >32 µg/mL
